Data reported in patent US12178825B2, “Method and compositions for forming a copper-containing complex and uses thereof” (COLD SPRING HARBOR LABORATORY, priority 2017, dated 2024).
“Also recorded” adds a separate entry of the source. Where two headings read alike, the source gives them in different places.

How the values were obtained:
[1] = tested on: TNBC cells; test: Annexin V and propidium iodide staining; type: cell-based
Protocol: Cells (1×10^5) were plated in six-well plates in growth medium. The cells were untreated or treated with DPM-1001 (2 μM). Following which, cells were washed with cold PBS twice and resuspended in 0.1 M Hepes/NaOH (pH 7.4), 1.4 M NaCl, 25 mM CaCl2). To the cell suspension 5 μl of fluorescein isothiocynate (FITC)-conjugated annexin V (0.1 mg/ml) and propidium iodide (1 mg/ml) were added and the samples were incubated in dark for 30 minutes at room temperature. The samples were analyzed by flow cytometry (Becton Dickinson LSRII Cell Analyzer).

[2] = tested on: TX mice; test: Liver histology; type: in vivo, mouse
From the text: Liver tissues from wild-type and TX mice from untreated and DPM-1001-treated mice were sectioned and stained with H&E or rhodanine. Whole-slide, digitized images of H&E-stained tissue were captured using the Aperio ScanScope XT automated scanning system (Vista, CA). Image J software was used to quantitate rhodanine staining.

[3] = tested on: TNBC cells; test: Cellular copper levels by ICP-MS; type: cell-based
Protocol: TNBC cells (1×10^6) were plated in a 10-cm culture dish in growth medium. About 24 h after seeding cells, they were untreated or treated with DPM-1001 (2 uM) or DPM-1003 (2 uM) for 2 h. Following which, cells were washed three times with PBS. Then, 215 μl of concentrated nitric acid (BDH Aristar Ultra) was added to each sample and incubated overnight. Samples were boiled at 95° C. for 1 h. and approximately 150 μl of each sample was further diluted in 2 ml 2% nitric acid (made freshly from concentrated nitric acid and Milli-Q water). Samples were analyzed on a Thermo Fisher iCAP Qc ICP mass spectrometer in kinetic energy discrimination (KED) mode against a calibration curve of known copper and phosphorus concentrations, with Ga (20 μg/l, Inorganic Ventures) as an internal standard. Each experiment was carried out twice and each condition was repeated in at least triplicate.

[4] = tested on: PTP1B1-367, PTP1B1-346 and PTP1B1-321; test: Phosphatase assay with C-terminal truncation mutants; type: biochemical
From the text: (§1) All common reagents were obtained from Thermo Fisher Scientific (Waltham, MA) or Sigma-Aldrich (St. Louis, MO). Difluoro-4-methylumbelliferyl phosphate (DiFMUP) was obtained from Invitrogen (cat #D22065). Solid black 384-well plates (cat #3573) for phosphatase assays were from Corning Incorporated (Corning, NY).

[5] = tested on: MDA-MB-231 and SUM159; test: Immunoblot of phospho-Erk; type: cell-based; conditions: DPM-1001 1-2 μM
From the text: Equal quantities of lysates were isolated from indicated cell lines and then resolved by SDS-PAGE and immunoblotted with one of the following primary antibodies: mouse anti-MEK1/2, rabbit anti-p-PAK1, rabbit anti-PAK1, rabbit anti-ERK1/2, rabbit anti-phospho(Ser 217/221)-MEK1/2, rabbit anti-phospho(Thr 202/Tyr 204)-ERK1/2, rabbit anti-phospho (Ser 338)-c-RAF, rabbit anti-RAF, rabbit anti-phospho (Ser 112)-BAD and rabbit anti-BAD (Cell Signaling Technology), mouse anti-β-actin (Sigma), followed by detection with one of the following horseradish peroxidase-conjugated secondary antibodies: goat anti-rabbit IgG, goat anti-mouse IgG (Invitrogen), mouse anti-rabbit light-chain-specific IgG (Jackson ImmunoResearch Laboratories) using enhanced chemiluminescence (ECL; GE Healthcare) or SuperSignal West Femto Chemiluminescent substrate (Pierce) detection reagents.

[6] = tested on: triple-negative breast cancer (TNBC) cell lines; test: MTT cell survival, triple-negative breast cancer cell lines; type: cell-based
Protocol: The MTT assay was used to evaluate cell survival in the absence and presence of different compounds. The thiazolyl blue tetrazolium bromide (MTT) was dissolved in phosphate buffered saline (PBS) at a concentration of 5 mg/ml, filtered, and stored at 4° C. About 10,000 cells were seeded into a 96-well plate and cultured in growth medium containing serum. After 24 hours, cells were treated with the indicated concentrations of DPM-1001 or DPM-1003 (0-100 uM) for 2 hrs. Following which 20 μl MTT was added into each well. An ELISA plate reader (Biotek, Winooski, Vermont, USA) was used to measure the optical density at 490 nm.

[7] = target: T1, PTP1B1-405 (Homo sapiens, UniProt P18031); test: PTP1B phosphatase activity assay, DiFMUP substrate, long form; type: biochemical
T1 construct: PTP1B1-405 (the long form of PTP1B which contains the extended C-terminal segment); made in house; host or cells: Escherichia coli BL21 (DE3)-RIL
T1 sequence (P18031 1-405): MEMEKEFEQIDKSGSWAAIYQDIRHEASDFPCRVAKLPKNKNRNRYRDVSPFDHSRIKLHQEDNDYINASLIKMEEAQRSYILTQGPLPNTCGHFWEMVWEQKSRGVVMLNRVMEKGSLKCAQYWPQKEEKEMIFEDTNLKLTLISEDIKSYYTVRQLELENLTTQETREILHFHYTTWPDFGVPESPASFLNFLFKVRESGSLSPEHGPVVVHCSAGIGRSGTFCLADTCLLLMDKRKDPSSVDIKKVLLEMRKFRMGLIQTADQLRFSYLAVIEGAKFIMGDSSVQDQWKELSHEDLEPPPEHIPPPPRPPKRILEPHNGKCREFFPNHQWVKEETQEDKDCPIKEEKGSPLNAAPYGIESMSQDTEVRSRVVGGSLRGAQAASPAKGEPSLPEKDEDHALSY
Protocol: as §1
Wild-type PTP1B containing a His-tag was expressed in Escherichia coli BL21 (DE3)-RIL using LB. Cells were resuspended in lysis buffer (50 mM Hepes pH 7.2, 150 mM NaCl, 10 mM imidazole, 2 mM TCEP) with cOmplete EDTA-free Protease Inhibitor Cocktail (Roche), and then lysed using a sonicator at 4° C. Lysates were clarified by centrifugation. Initial protein purification was by gravity flow, nickel column chromatography. Protein was used immediately or stored at −80° C. in 50 mM HEPES pH 7.4, 100 mM NaCl, 2 mM dithiothreitol and 25% glycerol.

## COC(=O)CCC(C)C1CCC2C3C(O)CC4CC(NCCCCNCc5ccccn5)CCC4(C)C3CCC12C (centres unmarked) [DPM-1001]
[1]
  mechanism of reduced cell survival: due to promoting death of these cells
[2]; TX mice
  liver morphology: prevents the enlarged hepatocytes with irregular shape and arrangement large cytoplasmic lipid droplets in liver; also recorded: appeared similar to those from wild-type mice with normal hepatocyte size, shape and arrangement
[2]; wild-type mice
  liver morphology: no obvious abnormalities were detected
[3]
  cellular copper levels: depletion of copper; also recorded: reduces cellular copper levels
[4]
  inhibitory potency for truncation mutants relative to PTP1B1-405 and PTP1B1-394: lower
[5]
  levels of phospho-Erk: high levels of reduction; also recorded: greater than that seen with 50 μM of bathocuproine disulfonate or 25 μM of TTM
[6]
  survival of triple-negative breast cancer cells: inhibited survival; also recorded: potently inhibits survival
[7]; after a 30 minute pre-incubation, read-out: IC50 for PTP1B1-405
  IC50: 100 nM
[7]; compound pre-incubated with PTP1B, read-out: IC50, inhibition of PTP1B
  IC50: 100 nM
[7]; enzyme-inhibitor complex diluted, activity recovery monitored
  reversibility of inhibition of PTP1B1-405: remained inactive over an extended period of time
[7]; long form PTP1B1-405, DiFMUP substrate (FIG. 1), read-out: IC50, inhibition of the phosphatase
  IC50: 100 nM
[7]; no pre-incubation, read-out: IC50 for PTP1B1-405
  IC50: 600 nM
[7]; presence of catalase
  time dependence of inhibition of PTP1B1-405: no obvious time dependence of inhibition
[7]; presence or absence of PRX1
  time dependence of inhibition of PTP1B1-405: time-dependent increase in potency
